# In US20230363954A1, “METHOD FOR MAKING AN ABSORBENT ARTICLE AND ABSORBENT ARTICLE” (The Procter & Gamble Company, priority 2022, published 2023):
# Like-named read-outs stand apart in the source and are kept apart here.
# Biological target: T1, Jack Bean Urease (Canavalia ensiformis, UniProt P07374)
# T1 construct: purchased Millipore Sigma U1500
# Assay type: biochemical
# Conditions: for Urease inhibition (in words): 0.1 g in synthetic urine with urease
# Procedure: To test the efficiency of different Green Tea Extracts, three different samples were tested: • Sample 1′: pure EGCG: Cas. […] 84650-60-2, EC no. […] The test procedure per sample and for a reference without Green Tea Extract was the following, all steps were performed at ambient lab temperature (23±1° C.) and atmospheric pressure:
# Synthetic Urine is prepared by dissolving 2% w/w urea, 0.9% w/w sodium chloride, 0.11% w/w magnesium sulfate monohydrate, 0.079% w/w calcium chloride monohydrate in deionized water. Urease stock solution (23.5 U/ml) is made by dissolving Jack Bean Urease (Catalog number U1500, Millipore Sigma, St. Louis, MO, USA, or equivalent) in deionized water.
# 67.5 ml of Synthetic urine were added to a beaker and the pH of the Synthetic urine (Urine pH) was determined analogously to the Urease Activity test method described above (Urine pH).
# 0.1 g of the corresponding Green Tea Extract—except for the reference sample—were added to the beaker and the solution stirred for 15 min. Afterwards the pH of the solution is determined.
# 7.5 ml of the Urease stock solution were added and the pH was monitored, while the stirring of the solution was maintained.
# From the values, the difference in pH mediated by Urease was calculated from the difference of the pH of the Synthetic urine and the final pH determined after addition of the Urease stock.
# T1 sequence (P07374 whole entry, looked up): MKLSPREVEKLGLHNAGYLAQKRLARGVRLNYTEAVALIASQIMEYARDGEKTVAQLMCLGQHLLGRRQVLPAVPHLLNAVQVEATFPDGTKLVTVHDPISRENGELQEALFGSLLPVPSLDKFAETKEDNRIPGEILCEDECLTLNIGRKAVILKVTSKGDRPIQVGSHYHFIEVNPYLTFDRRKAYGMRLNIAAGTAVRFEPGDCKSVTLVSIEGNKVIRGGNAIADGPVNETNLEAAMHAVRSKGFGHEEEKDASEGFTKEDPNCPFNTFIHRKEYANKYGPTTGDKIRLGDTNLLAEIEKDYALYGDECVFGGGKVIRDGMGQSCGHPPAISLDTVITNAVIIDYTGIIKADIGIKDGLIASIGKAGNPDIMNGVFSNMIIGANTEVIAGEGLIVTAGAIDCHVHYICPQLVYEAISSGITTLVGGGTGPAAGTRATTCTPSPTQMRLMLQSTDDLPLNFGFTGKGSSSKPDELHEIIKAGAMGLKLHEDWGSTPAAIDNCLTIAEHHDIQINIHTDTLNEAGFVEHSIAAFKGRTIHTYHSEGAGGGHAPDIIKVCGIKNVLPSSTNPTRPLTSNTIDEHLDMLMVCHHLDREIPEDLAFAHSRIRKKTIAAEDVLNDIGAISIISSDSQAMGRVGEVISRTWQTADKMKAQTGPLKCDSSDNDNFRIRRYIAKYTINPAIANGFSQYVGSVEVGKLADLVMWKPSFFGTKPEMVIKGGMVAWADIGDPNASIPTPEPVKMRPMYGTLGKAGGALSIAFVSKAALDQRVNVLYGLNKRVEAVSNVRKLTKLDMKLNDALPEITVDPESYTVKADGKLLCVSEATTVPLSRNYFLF
smiles,measurement,setting,value
"O=C(O[C@@H]1Cc2c(O)cc(O)cc2O[C@@H]1c1cc(O)c(O)c(O)c1)c1cc(O)c(O)c(O)c1 [Sample 1′, Epigallocatechin gallate]",Green Tea pH,"0.1 g in 67.5 ml Synthetic urine, stirred 15 min, before urease addition",5.7
same,Urease inhibition (in words),,inhibit Urease
same,Urease inhibition (in words),listed as EGCG,less efficient in its pure form
same,End pH,"after adding 7.5 ml Urease stock solution (23.5 U/ml), pH stabilized (typically 15 to 30 min)",7.7
same,pH difference,final pH minus pH of the Synthetic urine,1.2
